According to US20150105252A1, “SUBSTITUTED PYRAZOLES AS HERBICIDES” (E I DU PONT DE NEMOURS AND COMPANY, priority 2013, published 2015):

How the values were obtained:
velvetleaf = experiment: Test C postemergence; assay type: in vivo, Abutilon theophrasti
How it was run: (§1)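 In this greenhouse assay, seeded soil (loam plus sand) or emerged seedlings in peat-vermiculite medium were treated with formulated compound. Roughly two weeks later (13–15 days), each species was scored visually relative to controls, from 0 for no effect to 100 for complete control.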

ryegrass, Italian = experiment: Test C postemergence; assay type: in vivo, Lolium multiflorum
How it was run: as §1

morningglory = experiment: Test C postemergence; assay type: in vivo, Ipomoea coccinea
How it was run: as §1

soybean = experiment: Test C postemergence; assay type: in vivo, Glycine max
How it was run: as §1

foxtail, giant = experiment: Test C postemergence; assay type: in vivo, Setaria faberii
How it was run: as §1

chickweed = experiment: Test C postemergence; assay type: in vivo, Stellaria media
How it was run: as §1

ragweed = experiment: Test C postemergence; assay type: in vivo, Ambrosia elation
How it was run: as §1

galium = experiment: Test C postemergence; assay type: in vivo, Galium aparine
How it was run: as §1

nutsedge, yellow = experiment: Test C postemergence; assay type: in vivo, Cyperus esculentus
How it was run: as §1

barnyardgrass = experiment: Test C postemergence; assay type: in vivo, Echinochloa crus-galli
How it was run: as §1

waterhemp = experiment: Test C postemergence; assay type: in vivo, Amaranthus rudis
How it was run: as §1

kochia = experiment: Test C postemergence; assay type: in vivo, Kochia scoparia
How it was run: as §1

pigweed = experiment: Test C postemergence; assay type: in vivo, Amaranthus retroflexus
How it was run: as §1

lambsquarters [1] = experiment: Test C postemergence; assay type: in vivo, Chenopodium album
How it was run: as §1

oat, wild = experiment: Test C postemergence; assay type: in vivo, Avena fatua
How it was run: as §1

lambsquarters [2] = experiment: Test C preemergence; assay type: in vivo, Chenopodium album; conditions: for Lambsquarters plant response rating: preemergence
How it was run: as §1

[3] = Postemergence, 31 g ai/ha, visually evaluated after 13 to 15 days
[4] = postemergence, 62 g ai/ha, scale 0 to 100
[5] = postemergence, 250 g ai/ha, scale 0 to 100 (0 no effect, 100 complete control)
[6] = postemergence, 125 g ai/ha, scale 0 to 100, 0 no effect, 100 complete control

With `CCCc1cc(C(=O)NCC(F)(F)F)nn1Cc1ccnc(C(F)(F)F)c1` [Compound 105] the “Plant response rating (scale of 0 to 100 where 0 is no effect and 100 is complete control), Velvetleaf” value (velvetleaf; [3]) was 40, the “Velvetleaf plant response rating” value (velvetleaf; [4]) was 55 and the “Plant response rating, Velvetleaf” value (velvetleaf; [5]) was 75. The “Plant response rating, Velvetleaf” value (velvetleaf; [6]) was 70, the “Plant response rating (scale of 0 to 100 where 0 is no effect and 100 is complete control), Ryegrass, Italian” value (ryegrass, Italian; [3]) was 5 and the “Ryegrass, Italian plant response rating” value (ryegrass, Italian; [4]) was 10. The “Plant response rating, Ryegrass, Italian” value (ryegrass, Italian; [5]) was 45, the “Plant response rating, Ryegrass, Italian” value (ryegrass, Italian; [6]) was 30 and the “Plant response rating (scale of 0 to 100 where 0 is no effect and 100 is complete control), Morningglory” value (morningglory; [3]) was 80. The “Morningglory plant response rating” value (morningglory; [4]) was 80, the “Plant response rating, Morningglory” value (morningglory; [5]) was 95 and the “Plant response rating, Morningglory” value (morningglory; [6]) was 85. The “Plant response rating (scale of 0 to 100 where 0 is no effect and 100 is complete control), Soybean” value (soybean; [3]) was 80, the “Soybean plant response rating” value (soybean; [4]) was 80 and the “Plant response rating, Soybean” value (soybean; [5]) was 95. The “Plant response rating, Soybean” value (soybean; [6]) was 95, the “Plant response rating (scale of 0 to 100 where 0 is no effect and 100 is complete control), Foxtail, Giant” value (foxtail, giant; [3]) was 15 and the “Foxtail, Giant plant response rating” value (foxtail, giant; [4]) was 40. For the same molecule, the “Plant response rating, Foxtail, Giant” value (foxtail, giant; [5]) was 85, the “Plant response rating, Foxtail, Giant” value (foxtail, giant; [6]) was 75 and the “Plant response rating (scale of 0 to 100 where 0 is no effect and 100 is complete control), Chickweed” value (chickweed; [3]) was 90. For the same molecule, the “Chickweed plant response rating” value (chickweed; [4]) was 90, the “Plant response rating, Chickweed” value (chickweed; [5]) was 95 and the “Plant response rating, Chickweed” value (chickweed; [6]) was 95. For the same molecule, the “Plant response rating (scale of 0 to 100 where 0 is no effect and 100 is complete control), Ragweed” value (ragweed; [3]) was 30, the “Ragweed plant response rating” value (ragweed; [4]) was 40 and the “Plant response rating, Ragweed” value (ragweed; [5]) was 80. For the same molecule, the “Plant response rating, Ragweed” value (ragweed; [6]) was 65, the “Plant response rating (scale of 0 to 100 where 0 is no effect and 100 is complete control), Galium” value (galium; [3]) was 55 and the “Galium plant response rating” value (galium; [4]) was 85. The “Plant response rating, Galium” value (galium; [5]) was 90, the “Plant response rating, Galium” value (galium; [6]) was 85 and the “Plant response rating (scale of 0 to 100 where 0 is no effect and 100 is complete control), Nutsedge, Yellow” value (nutsedge, yellow; [3]) was 5. The “Nutsedge, Yellow plant response rating” value (nutsedge, yellow; [4]) was 5, the “Plant response rating, Nutsedge, Yellow” value (nutsedge, yellow; [5]) was 40 and the “Plant response rating, Nutsedge, Yellow” value (nutsedge, yellow; [6]) was 20. For the same molecule, the “Plant response rating (scale of 0 to 100 where 0 is no effect and 100 is complete control), Barnyardgrass” value (barnyardgrass; [3]) was 10, the “Barnyardgrass plant response rating” value (barnyardgrass; [4]) was 20 and the “Plant response rating, Barnyardgrass” value (barnyardgrass; [5]) was 85. For the same molecule, the “Plant response rating, Barnyardgrass” value (barnyardgrass; [6]) was 45, the “Plant response rating (scale of 0 to 100 where 0 is no effect and 100 is complete control), Waterhemp” value (waterhemp; [3]) was 65 and the “Waterhemp plant response rating” value (waterhemp; [4]) was 75. For the same molecule, the “Plant response rating, Waterhemp” value (waterhemp; [5]) was 85, the “Plant response rating, Waterhemp” value (waterhemp; [6]) was 75 and the “Plant response rating (scale of 0 to 100 where 0 is no effect and 100 is complete control), Kochia” value (kochia; [3]) was 90. For the same molecule, the “Kochia plant response rating” value (kochia; [4]) was 90, the “Plant response rating, Kochia” value (kochia; [5]) was 95 and the “Plant response rating, Kochia” value (kochia; [6]) was 90. For the same molecule, the “Plant response rating (scale of 0 to 100 where 0 is no effect and 100 is complete control), Pigweed” value (pigweed; [3]) was 75, the “Pigweed plant response rating” value (pigweed; [4]) was 85 and the “Plant response rating, Pigweed” value (pigweed; [5]) was 90. The “Plant response rating, Pigweed” value (pigweed; [6]) was 85, the “Plant response rating (scale of 0 to 100 where 0 is no effect and 100 is complete control), Lambsquarters” value (lambsquarters [1]; [3]) was 75 and the “Lambsquarters plant response rating” value (lambsquarters [1]; [4]) was 95. The “Plant response rating, Lambsquarters” value (lambsquarters [1]; [5]) was 98, the “Plant response rating, Lambsquarters” value (lambsquarters [1]; [6]) was 95 and the “Plant response rating (scale of 0 to 100 where 0 is no effect and 100 is complete control), Oat, Wild” value (oat, wild; [3]) was 25. The “Oat, Wild plant response rating” value (oat, wild; [4]) was 30, the “Plant response rating, Oat, Wild” value (oat, wild; [5]) was 60 and the “Plant response rating, Oat, Wild” value (oat, wild; [6]) was 45. The “Plant response rating (scale of 0 to 100), Lambsquarters” value (lambsquarters [2]; Preemergence, 250 g ai/ha) was 100, the “Lambsquarters plant response rating” value (lambsquarters [2]; 31 g ai/ha, visual rating, scale 0 to 100 (0 no effect, 100 complete control), 13 to 15 days) was 85 and the “Lambsquarters plant response rating” value (lambsquarters [2]; 62 g ai/ha, scale 0 to 100 (0 no effect, 100 complete control), 13 to 15 days) was 100. For the same molecule, the “Lambsquarters plant response rating” value (lambsquarters [2]; 125 g ai/ha, scale 0 to 100, 0 is no effect, 100 is complete control) was 100.
